Reference: the NIST ThermoML archive (doi:10.1021/acs.jced.5b01075)

Assay: wn = mass fraction of the nth substance listed
Details: 100 kPa, Liquid; for speed of sound: Frequency=3 MHz, Sing-around technique in a fixed-path interferometer; for mass density: Vibrating tube method

C1CC[C@H]2CCCC[C@@H]2C1 [trans-decahydronaphthalene] + c1ccc2c(c1)CCCC2
Details	mass density [kg/m3]	speed of sound [m/s]
293.15 K, w2 = 0.1003	878.7	1405
293.15 K, w2 = 0.2002	887.89	1412.5
293.15 K, w2 = 0.3	897.28	1420.5
293.15 K, w2 = 0.4002	906.9	1428.8
293.15 K, w2 = 0.5	916.67	1437.7
293.15 K, w2 = 0.6	926.69	1446.9
293.15 K, w2 = 0.7	936.89	1456.8
293.15 K, w2 = 0.8	947.32	1467
293.15 K, w2 = 0.8999	957.95	1477.9
303.15 K, w2 = 0.1003	871.18	1364.8
303.15 K, w2 = 0.2002	880.33	1372.4
303.15 K, w2 = 0.3	889.67	1380.5
303.15 K, w2 = 0.4002	899.23	1388.9
303.15 K, w2 = 0.5	908.96	1397.9
303.15 K, w2 = 0.6	918.92	1407.2
303.15 K, w2 = 0.7	929.09	1417.2
303.15 K, w2 = 0.8	939.47	1427.6
303.15 K, w2 = 0.8999	950.07	1438.6
313.15 K, w2 = 0.1003	863.68	1325.3
313.15 K, w2 = 0.2002	872.76	1333.1
313.15 K, w2 = 0.3	882.05	1341.3
313.15 K, w2 = 0.4002	891.55	1349.9
313.15 K, w2 = 0.5	901.24	1358.9
313.15 K, w2 = 0.6	911.15	1368.4
313.15 K, w2 = 0.7	921.27	1378.4
313.15 K, w2 = 0.8	931.61	1388.9
313.15 K, w2 = 0.8999	942.17	1400
323.15 K, w2 = 0.1003	856.15	1286.7
323.15 K, w2 = 0.2002	865.18	1294.5
323.15 K, w2 = 0.3	874.42	1302.8
323.15 K, w2 = 0.4002	883.87	1311.5
323.15 K, w2 = 0.5	893.51	1320.7
323.15 K, w2 = 0.6	903.37	1330.2
323.15 K, w2 = 0.7	913.45	1340.4
323.15 K, w2 = 0.8	923.75	1350.9
323.15 K, w2 = 0.8999	934.26	1362
333.15 K, w2 = 0.1003	848.6	1248.7
333.15 K, w2 = 0.2002	857.58	1256.7
333.15 K, w2 = 0.3	866.77	1265.1
333.15 K, w2 = 0.4002	876.17	1273.9
333.15 K, w2 = 0.5	885.76	1283.1
333.15 K, w2 = 0.6	895.58	1292.7
333.15 K, w2 = 0.7	905.62	1303
333.15 K, w2 = 0.8	915.87	1313.5
333.15 K, w2 = 0.8999	926.34	1324.8
343.15 K, w2 = 0.1003	841	–
343.15 K, w2 = 0.2002	850	–
343.15 K, w2 = 0.3	859.1	–
343.15 K, w2 = 0.4002	868.3	–
343.15 K, w2 = 0.5	878	–
343.15 K, w2 = 0.6	887.9	–
343.15 K, w2 = 0.7	897.7	–
343.15 K, w2 = 0.8	907.9	–
343.15 K, w2 = 0.8999	918.5	–
353.1 K, w2 = 0.1003	833.2	–
353.1 K, w2 = 0.2002	842.3	–
353.1 K, w2 = 0.3	851.4	–
353.1 K, w2 = 0.4002	860.6	–
353.1 K, w2 = 0.5	870.2	–
353.1 K, w2 = 0.6	880	–
353.1 K, w2 = 0.7	889.8	–
353.1 K, w2 = 0.8	900	–
353.1 K, w2 = 0.8999	910.5	–
363.1 K, w2 = 0.1003	825.5	–
363.1 K, w2 = 0.2002	834.6	–
363.1 K, w2 = 0.3	843.5	–
363.1 K, w2 = 0.4002	852.8	–
363.1 K, w2 = 0.5	862.3	–
363.1 K, w2 = 0.6	872.1	–
363.1 K, w2 = 0.7	881.8	–
363.1 K, w2 = 0.8	892	–
363.1 K, w2 = 0.8999	902.4	–
373.1 K, w2 = 0.1003	817.9	–
373.1 K, w2 = 0.2002	826.9	–
373.1 K, w2 = 0.3	835.8	–
373.1 K, w2 = 0.4002	844.9	–
373.1 K, w2 = 0.5	854.5	–
373.1 K, w2 = 0.6	864.2	–
373.1 K, w2 = 0.7	874	–
373.1 K, w2 = 0.8	883.9	–
373.1 K, w2 = 0.8999	894.4	–
